Results: PubChem BioAssay AID1996
≈ marks a conversion by molar mass, not a printed value.

details: buffer; pH 7.4; 200.0 µM

SMILES	solubility kinetic
Cc1ccc2c(c1)c1nc3ccccc3nc1n2C	< 0.2 µg/mL
CC(=O)c1ccc(NC(=O)Nc2ccncc2)cc1	> 38.3 µg/mL
O=C(NNC(=O)c1ccc2nc[nH]c2c1)c1ccccc1	> 42 µg/mL
CN(CC(=O)Nc1ccc(F)c(F)c1F)C(=O)C1COc2ccccc2O1 (stereo unspecified)	> 57 µg/mL
CCOP(=O)(c1ccc(N(C)C)cc1)C(O)c1ccccc1F (stereo unspecified)	> 50.6 µg/mL
O=C(Cc1ccc(F)cc1)NC1CCCCCC1	> 37.4 µg/mL
O=C(c1ccccc1CCc1ccccc1)N1CCCC1	40.5 µg/mL (≈ 145 µM)
O=c1[nH]c(=O)n([C@H]2C[C@H](O)[C@@H](CO)O2)cc1C(F)(F)F	> 44.4 µg/mL
COC(=O)c1cc(CNC(=O)C2CC(=O)N(c3ccc4c(c3)OCCO4)C2)ccc1OC (stereo unspecified)	64.7 µg/mL (≈ 147 µM)
COc1ccc(/C(C)=N/NC(=O)CNC(=O)c2ccco2)cc1	> 47.3 µg/mL
C=CCNC(=S)Nc1cc(C)ccn1	> 31.1 µg/mL
O=S(=O)(c1ccc2c(c1)CCC2)N1CCNCC1	> 40 µg/mL
CCN(Cc1ccc(Cl)s1)C(=O)c1cccc(OCc2c(C)noc2C)c1	16.4 µg/mL (≈ 40.5 µM)
O=C(COc1ccccc1Cl)Nc1cccnc1	33.7 µg/mL (≈ 128 µM)
CCOC(=O)c1cc2c(ccc3nc(C)c(C)c32)[nH]c1C	< 0.3 µg/mL
Cc1noc2ncnc(Oc3ccc(C(C)(C)C)cc3)c12	< 0.2 µg/mL
CCCc1c(C)[nH]c2ccc(C(=O)O)cc2c1=S	> 39.2 µg/mL
O=C(COC(=O)/C=C/c1ccccc1[N+](=O)[O-])NC(=O)NC1CCCC1	7.7 µg/mL (≈ 21.3 µM)
Cn1cccc1/C=C(/C#N)c1ccc(F)cc1	2.9 µg/mL (≈ 12.8 µM)
COc1ccccc1N1CCN(Cc2cnc(-c3ccccc3)[nH]2)CC1	15.1 µg/mL (≈ 43.3 µM)
O=C(Cn1c(NCCO)nc2ccccc21)Nc1cccc(S(=O)(=O)N2CCCC2)c1	63.1 µg/mL (≈ 142 µM)

SMILES	solubility kinetic
COc1cc(NC(=O)CCCN2C(=O)NC(C)(C)C2=O)cc(OC)c1	49.6 µg/mL (≈ 142 µM)
NC(=O)c1ccc(N=Cc2c(O)ccc3ccccc23)cc1	10.3 µg/mL (≈ 35.5 µM)
N#C/C(=C\c1cccc(Br)c1)C(=O)N1CCCCC1	> 47.9 µg/mL
CC(C)(C)c1ccc(-c2nc(N)nc(N)n2)cc1	0.9 µg/mL (≈ 3.7 µM)
CC1CC(=O)Nc2ccccc2N1S(=O)(=O)c1cccc(F)c1 (stereo unspecified)	30 µg/mL (≈ 89.7 µM)
Nc1nccc(-c2ccc(-n3cccc3)cc2)n1	< 0.1 µg/mL
CC(C)(C)Sc1ccc([N+](=O)[O-])cc1C(=O)Nc1ccncc1	> 49.7 µg/mL
C/C(=N\N1CCN(C)CC1)c1ccc(OC(F)F)cc1	> 42.5 µg/mL
CC1CCN(C(=O)c2ccc(S(=O)(=O)N3CCCCCC3)cc2)CC1	26 µg/mL (≈ 71.3 µM)
CCOc1ccccc1CNCc1ccc(F)cc1.Cl	43.8 µg/mL
O=C(Nc1cccc2ccccc12)NC1Cc2ccccc2C1	< 0.3 µg/mL
O=C(Nc1ccccc1)N1CCCC1c1cccs1 (stereo unspecified)	39.9 µg/mL (≈ 146 µM)
O=C(CCNC(=O)c1ccco1)Nc1ccccc1N1CCOCC1	> 51.5 µg/mL
CN(C)/C=N/C(=S)Nc1ccccc1	> 31.1 µg/mL
COc1ccc(OC)c(C(=O)NC2CCSc3ccccc32)c1 (stereo unspecified)	12.1 µg/mL (≈ 36.7 µM)
CC1(C)CC(=O)c2cnc3nc4ccccc4n3c2C1	26.6 µg/mL (≈ 100 µM)
COc1ccc(C(=O)Nc2ccccc2C(=O)Nc2ccccn2)cc1	< 0.2 µg/mL
Cc1cc(Br)ccc1N=C1C(=O)Nc2ccccc21	8 µg/mL (≈ 25.4 µM)
Cc1cc(C)cc(NC(=O)CN2C(=O)C3CC=CCC3C2=O)c1 (stereo unspecified)	> 46.9 µg/mL
O=C(Cc1c(F)cccc1Cl)N(Cc1ccccc1)c1ccccn1	37.3 µg/mL (≈ 105 µM)
O=C(Nc1ccc(NC(=O)c2ccccc2F)cn1)c1ccco1	8.4 µg/mL (≈ 25.8 µM)

SMILES	solubility kinetic
N#Cc1nc(-c2ccc(F)cc2)oc1N1CCCCC1	0.9 µg/mL (≈ 3.32 µM)
CCC1CCCCN1C(=O)CSc1nc2ncccc2[nH]1 (stereo unspecified)	> 45.7 µg/mL
C[Si](C)(C)n1ccnc1	14.6 µg/mL (≈ 104 µM)
O=C(/C=C/c1ccccc1[N+](=O)[O-])N1CCc2ccccc2C1	20.3 µg/mL (≈ 65.8 µM)
CCOC(=O)CSc1nc2ccccc2n2c(C)nnc12	> 45.4 µg/mL
O=[N+]([O-])c1cccc2c(N3CCCC3)ccnc12	> 36.5 µg/mL
COc1ccc2[nH]cc(CCNC(=O)Nc3ccccc3C)c2c1	10.4 µg/mL (≈ 32.2 µM)
Fc1ccccc1CNC(=S)NC1CCCCC1	> 40 µg/mL
NS(=O)(=O)c1cccc(NC(=O)COC(=O)CSCc2ccccc2)c1	> 59.2 µg/mL
COc1ccc(C2NC(=O)CCC2[N+](=O)[O-])cc1OC (stereo unspecified)	> 42 µg/mL
CC(C)c1ccc(Nc2c([N+](=O)[O-])c(=O)n(C)c3ccccc23)cc1	< 0.2 µg/mL
CCOc1ccccc1Oc1nc(-c2ccccc2O)nc2ccccc12	0.6 µg/mL (≈ 1.67 µM)
COc1ccccc1C(=O)OCC(=O)c1ccc(CNC(C)=O)s1	50.1 µg/mL (≈ 144 µM)
O=C1NC(Cc2ccccc2)C(=O)Nc2ccc(Br)cc21 (stereo unspecified)	15.7 µg/mL (≈ 45.5 µM)
S=C(NCc1ccco1)Nc1cccc(Cl)c1Cl	11.3 µg/mL (≈ 37.5 µM)
CCCc1c(O)nc(SCC(=O)O)[nH]c1=O	> 36.6 µg/mL
COc1cccc(OC)c1/C=C/C(=O)NC1CCCCC1	5.8 µg/mL (≈ 20 µM)
Cc1onc(-c2ccccc2)c1C(=O)NCC(=O)Nc1cc(Cl)ccc1Cl	9.4 µg/mL (≈ 23.3 µM)
N#C/C(=C\c1ccccc1)C(=O)NC1CC1	> 31.8 µg/mL
